Blank lines part the entries; values can stand above or below the molecule they belong to.
Experiment: Evaluation of storage stability: purity of stored solid DOTAGA-DBCO by HPLC area percentage
Format: physicochemical
Details: for long-term storage stability (in words): refrigerating or freezing conditions, after 6 months storage
Procedure: Thereafter, the brown vial containing DOTAGA-DBCO was placed under each of the conditions: room temperature (Example 1: 21 to 25° C.); high temperature (Example 2: 40° C.); refrigerating (Example 3: 5° C.); and freezing (Example 4: -20° C.), and stored for a predetermined period.
Thereafter, the colorless transparent glass vial containing DOTAGA-DBCO was placed under the condition of room temperature (Example 5: 19 to 23° C.) and stored for a predetermined period.
Subsequently, DOTAGA-DBCO obtained by drying in the same manner as in Examples 1 to 4 was put in a brown vial, and the brown vial was placed under each of the conditions: room temperature (Comparative Example 1: 21 to 25° C.); and high temperature (Comparative Example 2: 40° C.), and stored for a predetermined period.
For DOTAGA-DBCOs in each of Examples and Comparative Examples, the purity was measured by the following measurement method at each time point: at the start of storage, after 7 days storage, after 1 month storage, after 3 months storage, and after 6 months storage. The smaller deterioration in purity with respect to the purity at the start of storage, the more excellent the storage stability.
1.0 mg of the objective compound was precisely weighed. For Examples 1 and 2 and Comparative Examples 1 and 2, a mixture of 10 mmol/L ammonium formate solution (pH 3.0)/acetonitrile for liquid chromatography (95:5) was added to make an exactly 10 mL sample solution. For Examples 3 and 4, a mixture of 10 mmol/L ammonium formate solution (pH 3.0)/methanol for liquid chromatography (95:5) was added to make an exactly 10 mL sample solution. For Example 5, methanol for liquid chromatography was added to make an exactly 10 mL sample solution.
For 10 μL of each of these sample solutions, high performance liquid chromatography measurement was conducted under the following conditions. The peak area of the sample solution was measured with automatic integration method, and the amount of these compounds was determined through area percentage method. Each sample solution was prepared one time and measured 3 times. The arithmetic average value of the three measurement results was defined as purity (%). Note that, at the start of storage, each sample solution was prepared and measured one time, respectively.
• Detector (1): ultraviolet absorptiometer (measurement wavelength: 290 nm, 308 nm) • Detector (2): ACQ-QDa (Positive scan: cone voltage 15 V, capillary voltage 0.8 V; Negative scan: cone voltage 15 V, capillary voltage 0.8 V, scanning range: m/z 50 to 1200) • Column: a stainless steel tube having an inner diameter of 4.6 mm and a length of 10 cm, packed with 3.5 μm octadecylsilylated silica gel for liquid chromatography (XBridge C18) • Column temperature: maintained at a constant temperature of about 25° C.
• Mobile phase: (Mobile phase A) 10 mmol/L ammonium formate solution (pH 3.0) and (Mobile phase B) acetonitrile were used for liquid feeding while controlling the concentration gradient (vol %) in the order of the following (i) to (v). The flow rate of each mobile phase was 1 mL/min.

[1] = storage conditions: room temperature
[2] = stored at 5° C. (refrigerating)

Compound: O=C(O)CN1CCN(CC(=O)O)CCN(C(CCC(=O)NCCC(=O)N2Cc3ccccc3C#Cc3ccccc32)C(=O)O)CCN(CC(=O)O)CC1 (stereo not shown) [Example 2, DOTAGA-DBCO]
Purity (%) of compound at storage start (storage conditions: 40° C.): 97.6%
Purity (%) of compound after 1 month (stored at 40° C.): 96.7%
Purity (%) of compound after 3 months (stored at 40° C.): 93.9%
Purity (%) of compound after 6 months (stored at 40° C.): 92.0%
Purity (%) of compound after 7 days (stored at 40° C.): 96.9%

Compound: O=C(O)CN1CCN(CC(=O)O)CCN(C(CCC(=O)NCCC(=O)N2Cc3ccccc3C#Cc3ccccc32)C(=O)O)CCN(CC(=O)O)CC1 (stereo not shown) [Example 5, DOTAGA-DBCO]
Purity (%) of compound at storage start [1]: 97.5%
Purity (%) of compound after 1 month (stored at room temperature): 96.0%
Purity (%) of compound after 7 days (stored at room temperature): 97.2%

Compound: O=C(O)CN1CCN(CC(=O)O)CCN(C(CCC(=O)NCCC(=O)N2Cc3ccccc3C#Cc3ccccc32)C(=O)O)CCN(CC(=O)O)CC1 (stereo not shown) [Comparative Example 1, DOTAGA-DBCO]
Purity (%) of compound at storage start [1]: 96.4%
Purity (%) of compound after 1 month (stored at room temperature): 90.9%
Purity (%) of compound after 7 days (stored at room temperature): 95.5%

Compound: O=C(O)CN1CCN(CC(=O)O)CCN(C(CCC(=O)NCCC(=O)N2Cc3ccccc3C#Cc3ccccc32)C(=O)O)CCN(CC(=O)O)CC1 (stereo not shown) [Example 1, DOTAGA-DBCO]
Purity (%) of compound at storage start [1]: 97.6%
Purity (%) of compound after 1 month (stored at room temperature): 96.9%
Purity (%) of compound after 3 months (stored at room temperature): 95.7%
Purity (%) of compound after 6 months (stored at room temperature): 93.6%
Purity (%) of compound after 7 days (stored at room temperature): 97.1%

More lines, main results first:

Purity (%) of compound at storage start (storage conditions: 40° C.): 96.4%
Purity (%) of compound after 1 month (stored at 40° C.): 52.2%
Purity (%) of compound after 7 days (stored at 40° C.): 86.1%
Compound: O=C(O)CN1CCN(CC(=O)O)CCN(C(CCC(=O)NCCC(=O)N2Cc3ccccc3C#Cc3ccccc32)C(=O)O)CCN(CC(=O)O)CC1 (stereo not shown) [Comparative Example 2, DOTAGA-DBCO]

Purity (%) of compound at storage start (storage conditions: 5° C. (refrigerating)): 96.9%
Purity (%) of compound after 1 month [2]: 97.0%
Purity (%) of compound after 3 months [2]: 93.2%
Purity (%) of compound after 6 months [2]: 96.8%
Purity (%) of compound after 7 days [2]: 97.4%
Compound: O=C(O)CN1CCN(CC(=O)O)CCN(C(CCC(=O)NCCC(=O)N2Cc3ccccc3C#Cc3ccccc32)C(=O)O)CCN(CC(=O)O)CC1 (stereo not shown) [Example 3, DOTAGA-DBCO]
long-term storage stability (in words): purity at the start of storage is maintained even after 6 months storage

Purity (%) of compound at storage start (storage conditions: −20° C. (freezing)): 96.9%
Purity (%) of compound after 1 month (stored at −20° C. (freezing)): 97.6%
Purity (%) of compound after 3 months (stored at −20° C. (freezing)): 93.5%
Purity (%) of compound after 6 months (stored at −20° C. (freezing)): 95.5%
Purity (%) of compound after 7 days (stored at −20° C. (freezing)): 97.4%
Compound: O=C(O)CN1CCN(CC(=O)O)CCN(C(CCC(=O)NCCC(=O)N2Cc3ccccc3C#Cc3ccccc32)C(=O)O)CCN(CC(=O)O)CC1 (stereo not shown) [Example 4, DOTAGA-DBCO]
long-term storage stability (in words): purity at the start of storage is maintained even after 6 months storage

— US20240166631A1, “COMPOUND, METHOD FOR PRODUCING AND METHOD FOR STORING COMPOUND, METHOD FOR PRODUCING TARGETING AGENT, AND COMPOSITION” (NIHON MEDI-PHYSICS CO., LTD, priority 2021, published 2024)
